Values joined by “and” are separate entries in the source; they are usually repeats but may differ in a detail not shown here. Equal values may be shown once. Read-outs that look alike come from different tables or passages of the source.
Tests used:
Assay type in all cases: cell-based
Rat α4β2 = molecular target: T1, Rat α4β2 (Rattus norvegicus, UniProt P09483+P12390); test: Voltage clamp of Xenopus oocytes expressing α4β2 nAChR
T1 construct: expressed in transfected cells; host or cells: Xenopus laevis oocytes injected with subunit cRNAs; clones from Dr. Jim Boulter (UCLA)
Experimental: (§1) Mature (>9 cm) female Xenopus laevis African frogs (NASCO, Ft. Atkinson, Wis.) were used as a source of oocytes. Prior to surgery, frogs were anesthetized by placing the animal in a 1.5 g/l solution of MS222 (3-aminobenzoic acid ethyl ester) for 30 minutes. Oocytes were removed from an incision made in the abdomen.
(§2) In order to remove the follicular cell layer, harvested oocytes were treated with 1.25 mg/ml collagenase from Worthington Biochemical Corporation (Freehold, N.J.) for 2 hours at room temperature in calcium-free Barth's solution (88 mM NaCl, 10 mM HEPES pH 7.6, 0.33 mM MgSO4, 0.1 mg/ml gentamicin sulfate). Subsequently, stage 5 oocytes were isolated and injected with 50 nl (5-20 ng) each of the appropriate subunit cRNAs. Recordings were made 2 to 15 days after injection.
(§3) Rat neuronal nAChR clones and mouse muscle nAChR cDNA clones were used. The wild-type clones were obtained from Dr. Jim Boulter (UCLA). The rat α6/3 (Dowell et al. J Neurosci, 2003, 23:8445-8452) clone was obtained from Michael McIntosh (University of Utah) and expressed in Xenopus oocytes in combinations with rat β2 and β3. […] The TM2 domain is understood to line the pore of the channel, with alpha helix structure. The 7′ position may actually be directed away from the actual pore lining, but this residue is highly conserved in all of the nAChR. It is valine in all of them except α9 (isoleucine) and β1, where it is alanine. The TM2 mutation in the α6/3 chimera was corrected by using QuickChange (Stratagene) according to their protocols. The corrected α6/3 chimera sequence was confirmed by restriction diagnostics and by automated fluorescent sequencing (University of Florida core facility). The corrected clone was expressed as above in Xenopus oocytes with β2 and β3 and compared to the wild-type α3 co-expressed with β2 and β3.
(§4) After linearization and purification of cloned cDNAs, RNA transcripts were prepared in vitro using the appropriate mMessage mMachine kit from Ambion Inc. (Austin, Tex.).
(§5) Electrophysiology. The majority of experiments were conducted using OpusXpress 6000A (Axon Instruments, Union City Calif.). OpusXpress is an integrated system that provides automated impalement and voltage clamp of up to eight oocytes in parallel. Cells were automatically perfused with bath solution, and agonist solutions were delivered from a 96-well plate. Both the voltage and current electrodes were filled with 3 M KCl. The agonist solutions were applied via disposable tips, which eliminated any possibility of cross-contamination. Drug applications alternated between ACh controls and experimental applications. Flow rates were set at 2 ml/min for experiments with α7 receptors and 4 ml/min for other subtypes. Cells were voltage-clamped at a holding potential of −60 mV. Data were collected at 50 Hz and filtered at 20 Hz. Agonist applications were 12 seconds in duration followed by 181-second washout periods for α7 receptors and 8 seconds with 241-second wash periods for other subtypes. For some experiments, particularly under conditions where residual inhibition precluded making repeated measurements from single cells (see below), manual oocyte recordings were made as previously described (Papke and Papke Br J of Pharmacol, 2002, 137:49-61). In brief, Warner Instruments (Hamden, Conn.) OC-725C oocyte amplifiers were used, and data were acquired with a minidigi or digidata 1200A with pClamp9 software (Axon Instruments). Sampling rates were between 10 and 20 Hz and the data were filtered at 6 Hz. Cells were voltage clamped at a holding potential of −50 mV.
(§6) Experimental protocols and data analysis. Each oocyte received two initial control applications of ACh, an experimental drug application (or co-application of ACh and TMPH), and then follow-up control application(s) of ACh. The control ACh concentrations for α1β1γδ, α3β4, α4β2, α3β2, α3β2α5, α3β2β3, α6/3β2β3 α6β4β3 and α7, receptors were 30 μM, 100 μM, 10 μM, 30 μM, 1 μM 100 μM 100 μM 100 μM and 300 μM, respectively. […]

Human α3β2 = molecular target: T2, Human α3β2 (Homo sapiens, UniProt P17787+P32297); test: Voltage clamp of Xenopus oocytes expressing human α3β2 nAChR
T2 construct: expressed in transfected cells; host or cells: Xenopus laevis oocytes injected with subunit cRNAs
Experimental: as §1, §2, §4, §5
as §6, with “respectively. In other experiments (Papke et al. J. Neurochem., 2000, 75:204-216; Papke and Papke Br J of Pharmacol, 2002, 137:49-61) these concentrations were determined to be the EC74, EC15, EC22, EC17, EC40, EC70, EC55, EC70 and EC100, respectively.” for “respectively.”
Responses to experimental drug applications were calculated relative to the preceding ACh control responses in order to normalize the data, compensating for the varying levels of channel expression among the oocytes. […]

Rat α6β4β3 = molecular target: T3, Rat α6β4β3 (Rattus norvegicus, UniProt P12391+P12392+P43143); test: Voltage clamp of Xenopus oocytes expressing α6β4β3 nAChR
T3 construct: oocytes expressing the complete wild-type α6 subunits were tested; expressed in transfected cells; host or cells: Xenopus laevis oocytes injected with subunit cRNAs; clones from Dr. Jim Boulter (UCLA)
Experimental: as §1, §2, §3, §4
as §5, with “Cells were voltage clamped at a holding potential of −50 mV.” left out

[1] = inhibition still present after 5-minute wash, read-out: IC50 (recovery)

T1 sequence (P09483 31-630): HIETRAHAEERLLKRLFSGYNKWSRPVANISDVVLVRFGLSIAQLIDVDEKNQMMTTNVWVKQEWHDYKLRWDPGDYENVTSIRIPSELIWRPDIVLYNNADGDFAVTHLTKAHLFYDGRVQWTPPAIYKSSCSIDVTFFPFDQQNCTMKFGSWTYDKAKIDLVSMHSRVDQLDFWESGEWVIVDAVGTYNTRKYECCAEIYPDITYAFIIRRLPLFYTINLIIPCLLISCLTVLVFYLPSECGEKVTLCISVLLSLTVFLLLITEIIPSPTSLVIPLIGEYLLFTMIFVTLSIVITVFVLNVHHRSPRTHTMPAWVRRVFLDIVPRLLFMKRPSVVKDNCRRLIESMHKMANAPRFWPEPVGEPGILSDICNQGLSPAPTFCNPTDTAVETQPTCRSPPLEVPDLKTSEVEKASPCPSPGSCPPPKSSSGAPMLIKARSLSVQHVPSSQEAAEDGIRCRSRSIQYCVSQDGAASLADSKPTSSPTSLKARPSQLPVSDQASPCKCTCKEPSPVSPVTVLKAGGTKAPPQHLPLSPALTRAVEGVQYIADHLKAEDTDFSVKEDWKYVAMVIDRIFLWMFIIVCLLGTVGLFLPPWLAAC
T1 sequence (P12390 25-500): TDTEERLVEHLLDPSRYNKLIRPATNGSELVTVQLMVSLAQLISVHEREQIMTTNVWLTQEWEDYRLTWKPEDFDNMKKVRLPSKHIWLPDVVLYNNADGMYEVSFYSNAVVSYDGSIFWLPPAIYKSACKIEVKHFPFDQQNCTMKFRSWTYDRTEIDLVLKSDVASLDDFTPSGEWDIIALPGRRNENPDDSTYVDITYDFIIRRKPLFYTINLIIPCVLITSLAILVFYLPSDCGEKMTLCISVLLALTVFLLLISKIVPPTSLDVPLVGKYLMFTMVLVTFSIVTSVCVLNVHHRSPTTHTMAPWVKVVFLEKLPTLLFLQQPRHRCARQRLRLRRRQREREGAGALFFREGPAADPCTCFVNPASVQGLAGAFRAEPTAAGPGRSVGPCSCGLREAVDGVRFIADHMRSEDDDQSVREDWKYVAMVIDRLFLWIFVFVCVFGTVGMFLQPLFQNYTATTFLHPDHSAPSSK
T2 sequence (P32297 32-505): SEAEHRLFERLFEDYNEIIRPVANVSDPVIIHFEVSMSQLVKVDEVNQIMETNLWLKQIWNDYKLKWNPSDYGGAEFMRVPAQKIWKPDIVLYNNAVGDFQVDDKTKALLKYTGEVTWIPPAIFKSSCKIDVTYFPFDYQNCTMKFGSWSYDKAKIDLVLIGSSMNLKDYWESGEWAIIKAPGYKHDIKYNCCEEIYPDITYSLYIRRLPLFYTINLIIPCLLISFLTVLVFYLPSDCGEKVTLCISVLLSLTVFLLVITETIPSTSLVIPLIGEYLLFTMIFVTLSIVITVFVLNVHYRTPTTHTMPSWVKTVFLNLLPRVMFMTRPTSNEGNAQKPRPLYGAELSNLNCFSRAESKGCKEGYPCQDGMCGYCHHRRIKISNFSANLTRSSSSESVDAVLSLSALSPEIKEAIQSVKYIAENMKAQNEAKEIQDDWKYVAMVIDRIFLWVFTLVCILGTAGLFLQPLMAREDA
T2 sequence (P17787 26-502): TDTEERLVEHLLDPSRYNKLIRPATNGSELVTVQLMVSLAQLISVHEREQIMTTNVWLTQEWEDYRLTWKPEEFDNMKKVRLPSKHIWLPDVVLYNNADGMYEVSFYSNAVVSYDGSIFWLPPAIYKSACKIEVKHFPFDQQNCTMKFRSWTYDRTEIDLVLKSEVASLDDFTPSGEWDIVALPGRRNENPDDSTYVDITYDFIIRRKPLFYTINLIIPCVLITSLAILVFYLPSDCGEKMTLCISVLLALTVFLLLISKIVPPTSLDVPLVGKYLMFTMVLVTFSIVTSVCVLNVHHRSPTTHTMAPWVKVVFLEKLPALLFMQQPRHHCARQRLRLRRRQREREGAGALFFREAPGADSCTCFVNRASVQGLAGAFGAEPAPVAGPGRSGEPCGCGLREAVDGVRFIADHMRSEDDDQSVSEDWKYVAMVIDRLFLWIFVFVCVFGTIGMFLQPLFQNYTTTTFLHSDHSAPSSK
T3 sequence (P43143 31-493): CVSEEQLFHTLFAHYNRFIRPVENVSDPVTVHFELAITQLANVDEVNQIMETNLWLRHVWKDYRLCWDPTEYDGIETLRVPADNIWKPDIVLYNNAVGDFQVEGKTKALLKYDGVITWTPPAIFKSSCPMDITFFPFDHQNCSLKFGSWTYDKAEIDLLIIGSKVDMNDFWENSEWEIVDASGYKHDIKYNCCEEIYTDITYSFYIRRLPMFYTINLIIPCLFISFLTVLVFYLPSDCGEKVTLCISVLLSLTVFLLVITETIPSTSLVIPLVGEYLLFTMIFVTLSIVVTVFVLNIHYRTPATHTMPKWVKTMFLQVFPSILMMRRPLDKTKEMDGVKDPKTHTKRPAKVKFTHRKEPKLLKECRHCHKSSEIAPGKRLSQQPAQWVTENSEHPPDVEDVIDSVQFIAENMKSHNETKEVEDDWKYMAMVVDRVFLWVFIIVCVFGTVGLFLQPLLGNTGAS
T3 sequence (P12392 21-495): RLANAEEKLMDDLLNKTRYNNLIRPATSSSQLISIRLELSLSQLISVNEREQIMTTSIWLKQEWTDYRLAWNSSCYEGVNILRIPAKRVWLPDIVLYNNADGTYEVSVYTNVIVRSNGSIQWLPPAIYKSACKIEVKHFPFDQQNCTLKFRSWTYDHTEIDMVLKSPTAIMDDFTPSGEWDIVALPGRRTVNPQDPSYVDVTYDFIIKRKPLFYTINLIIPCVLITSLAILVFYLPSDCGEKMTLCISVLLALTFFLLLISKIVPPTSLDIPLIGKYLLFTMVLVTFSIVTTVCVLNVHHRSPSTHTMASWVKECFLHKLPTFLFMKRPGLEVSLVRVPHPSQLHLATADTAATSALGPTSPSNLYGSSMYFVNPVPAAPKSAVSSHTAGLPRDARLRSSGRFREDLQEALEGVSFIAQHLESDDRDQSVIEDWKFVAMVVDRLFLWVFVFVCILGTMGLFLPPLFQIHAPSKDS
T3 sequence (P12391 31-464): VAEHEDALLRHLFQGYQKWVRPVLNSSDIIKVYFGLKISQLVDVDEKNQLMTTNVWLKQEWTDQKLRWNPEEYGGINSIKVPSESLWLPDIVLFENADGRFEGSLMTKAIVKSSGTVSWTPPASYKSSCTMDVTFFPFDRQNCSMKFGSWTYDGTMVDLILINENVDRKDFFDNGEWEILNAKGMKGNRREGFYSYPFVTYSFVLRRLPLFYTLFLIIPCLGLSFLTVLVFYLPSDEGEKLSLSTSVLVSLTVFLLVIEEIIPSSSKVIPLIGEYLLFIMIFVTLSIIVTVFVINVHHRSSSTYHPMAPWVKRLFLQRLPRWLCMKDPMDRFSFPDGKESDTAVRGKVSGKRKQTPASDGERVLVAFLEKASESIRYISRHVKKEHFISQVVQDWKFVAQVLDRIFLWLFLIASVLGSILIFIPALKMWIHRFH

`CCCCCCC(=O)OC1CC(C)(C)NC(C)(C)C1` [TMPH, 2,2,6,6-tetramethylpiperidin-4-yl heptanoate] was tested, and the inhibition at 0.1 µM (Rat α4β2; 100 nM TMPH, after 3 applications at 10-minute intervals, read-out: inhibition after repeated co-applications of ACh with TMPH) was 90%, the “use-independent inhibition, TMPH applied alone” value (Rat α4β2; 1 μM TMPH alone versus co-applied with ACh) was “almost as effective as when co-applied with ACh” and the IC50 (Rat α4β2; decrease in net charge, 10 μM ACh co-applied with TMPH, single co-application, read-out: IC50 (area)) was 0.1 µM and 0.11 µM. For the same compound, the IC50 (Rat α4β2; decrease in peak current amplitude, 10 μM ACh co-applied with TMPH, read-out: IC50 (peak)) was 1.4 µM, the reversibility of inhibition (Rat α4β2; following a 5-minute wash) was “virtually no recovery” and the IC50 (Rat α4β2; from shift of the net charge inhibition curve so that 100 nM is the IC90, read-out: equilibrium IC50) was ~0.01 µM. The IC50 (Rat α4β2; [1]) was 0.25 ± 0.08 µM, the “IC50 net charge/IC50 peak” value (Rat α4β2; ratio) was 0.08 and the “IC50 recovery/IC50 net charge” value (Rat α4β2; ratio) was 2.3. For the same compound, the IC50 (Human α3β2; decrease in net charge, 30 μM ACh co-applied with TMPH, read-out: IC50 (area)) was 0.46 ± 0.17 µM, the IC50 (Human α3β2; decrease in peak current amplitude, 30 μM ACh co-applied with TMPH, read-out: IC50 (peak)) was 3.7 ± 1.2 µM and the IC50 (Human α3β2; [1]) was 0.4 ± 0.12 µM. The “IC50 net charge/IC50 peak” value (Human α3β2; ratio) was 0.12, the “IC50 recovery/IC50 net charge” value (Human α3β2; ratio) was 0.87 and the IC50 (Rat α6β4β3; decrease in net charge, 100 μM ACh co-applied with TMPH, read-out: IC50 (area)) was 18.3 ± 4.9 µM. The IC50 (Rat α6β4β3; decrease in peak current amplitude, 100 μM ACh co-applied with TMPH, read-out: IC50 (peak)) was 11 ± 4.4 µM, the IC50 (Rat α6β4β3; [1]) was 1700 ± 420 µM and the “IC50 net charge/IC50 peak” value (Rat α6β4β3; ratio) was 1.7. For the same compound, the “IC50 recovery/IC50 net charge” value (Rat α6β4β3; ratio) was 93.
